Experimental data from the NIST ThermoML archive (doi:10.1021/je3009304).
± gives the expanded uncertainty stated by the source.

Conditions: Liquid, isochoric method

C=C(F)C(F)(F)F [2,3,3,3-tetrafluoro-1-propene]
mass density (217.44 K, 14681 kPa): 1363.7 ± 1.3 kg/m3
mass density (218.27 K, 962.6 kPa): 1333.8 ± 1.3 kg/m3
mass density (219.23 K, 2020.3 kPa): 1333.7 ± 1.3 kg/m3
mass density (220.22 K, 3106.5 kPa): 1333.6 ± 1.3 kg/m3
mass density (221.18 K, 4140.3 kPa): 1333.5 ± 1.3 kg/m3
mass density (221.97 K, 20077 kPa): 1363.2 ± 1.3 kg/m3
mass density (222.06 K, 5097 kPa): 1333.4 ± 1.3 kg/m3
mass density (226.65 K, 10087 kPa): 1332.9 ± 1.3 kg/m3
mass density (226.93 K, 25988 kPa): 1362.7 ± 1.3 kg/m3
mass density (230.27 K, 29902 kPa): 1362.4 ± 1.3 kg/m3
mass density (231.25 K, 15017 kPa): 1332.4 ± 1.3 kg/m3
mass density (231.72 K, 1001.1 kPa): 1298.5 ± 1.3 kg/m3
mass density (232.84 K, 2093.9 kPa): 1298.4 ± 1.3 kg/m3
mass density (233.76 K, 2987 kPa): 1298.2 ± 1.3 kg/m3
mass density (234.77 K, 35121 kPa): 1361.9 ± 1.3 kg/m3
mass density (234.92 K, 4113.3 kPa): 1298.2 ± 1.3 kg/m3
mass density (236.02 K, 20027 kPa): 1332 ± 1.3 kg/m3
mass density (236.13 K, 5205.1 kPa): 1298 ± 1.3 kg/m3
mass density (240.49 K, 24777 kPa): 1331.5 ± 1.3 kg/m3
mass density (241.06 K, 10038 kPa): 1297.5 ± 1.3 kg/m3
mass density (245.59 K, 30165 kPa): 1331 ± 1.3 kg/m3
mass density (246.22 K, 14993 kPa): 1297.1 ± 1.3 kg/m3
mass density (250.28 K, 35113 kPa): 1330.6 ± 1.3 kg/m3
mass density (251.43 K, 19983 kPa): 1296.6 ± 1.3 kg/m3
mass density (251.62 K, 971.2 kPa): 1243.5 ± 1.2 kg/m3
mass density (252.83 K, 1949.3 kPa): 1243.4 ± 1.2 kg/m3
mass density (254.25 K, 3101.8 kPa): 1243.3 ± 1.2 kg/m3
mass density (254.96 K, 39964 kPa): 1330.1 ± 1.3 kg/m3
mass density (255.48 K, 4096.7 kPa): 1243.2 ± 1.2 kg/m3
mass density (256.7 K, 5077.8 kPa): 1243.1 ± 1.2 kg/m3
mass density (256.72 K, 25008 kPa): 1296.1 ± 1.3 kg/m3
mass density (261.89 K, 29860 kPa): 1295.6 ± 1.3 kg/m3
mass density (262.98 K, 10262 kPa): 1242.5 ± 1.2 kg/m3
mass density (267.49 K, 35084 kPa): 1295.1 ± 1.3 kg/m3
mass density (269.01 K, 15092 kPa): 1242 ± 1.2 kg/m3
mass density (269.39 K, 1033.4 kPa): 1191.1 ± 1.2 kg/m3
mass density (270.88 K, 2044.5 kPa): 1190.9 ± 1.2 kg/m3
mass density (272.34 K, 3041.1 kPa): 1190.8 ± 1.2 kg/m3
mass density (272.52 K, 39731 kPa): 1294.7 ± 1.3 kg/m3
mass density (273.79 K, 4025.5 kPa): 1190.7 ± 1.2 kg/m3
mass density (275.28 K, 5036.3 kPa): 1190.6 ± 1.2 kg/m3
mass density (275.31 K, 20033 kPa): 1241.4 ± 1.2 kg/m3
mass density (282.03 K, 25427 kPa): 1240.8 ± 1.2 kg/m3
mass density (282.83 K, 10183 kPa): 1189.9 ± 1.2 kg/m3
